Experimental data taken from patent US11629201B2, “PSMA-binding agents and uses thereof” (ITM Isotope Technologies Munich SE, priority 2017, dated 2023).

Tested on: PC-3 PIP/flu tumor-bearing mice
Assay: Biodistribution studies in PC-3 PIP/flu tumor-bearing mice
Details: for Tumor-to-blood / Tumor-to-kidney / Tumor-to-liver: PC-3 PIP tumor

O=C(O)CCC(NC(=O)NC(CCCCNC(=O)C(Cc1ccc2ccccc2c1)NC(=O)C1CCC(CNC(=O)C(CCCCNC(=O)CCCc2ccc(I)cc2)NC(=O)CN2CCN(CC(=O)O)CCN(CC(=O)O)CCN(CC(=O)O)CC2)CC1)C(=O)O)C(=O)O (centres unmarked) [^177Lu-PSMA-ALB-03, metal not drawn]
Tumor-to-blood (1 h p.i.): 0.31 ± 0.04 | Tumor-to-kidney (1 h p.i.): 0.48 ± 0.07 | Tumor-to-liver (1 h p.i.): 1.64 ± 0.61 | Blood (4 h p.i.): 24.3 ± 3.60 % IA/g | Bone (4 h p.i.): 2.47 ± 0.39 % IA/g | Heart (4 h p.i.): 8.54 ± 1.18 % IA/g | Intestines (4 h p.i.): 3.71 ± 1.09 % IA/g | Kidneys (4 h p.i.): 24.5 ± 4.38 % IA/g | Liver (4 h p.i.): 4.56 ± 1.18 % IA/g | Lung (4 h p.i.): 14.21 ± 3.49 % IA/g | Muscle (4 h p.i.): 2.04 ± 0.37 % IA/g | PC-3 PIP Tumor (4 h p.i.): 19.9 ± 0.79 % IA/g | PC-3 flu Tumor (4 h p.i.): 5.32 ± 1.06 % IA/g | Salivary glands (4 h p.i.): 5.02 ± 1.17 % IA/g | Spleen (4 h p.i.): 4.76 ± 1.12 % IA/g | Stomach (4 h p.i.): 2.86 ± 1.03 % IA/g | Tumor-to-blood (4 h p.i.): 0.83 ± 0.10 | Tumor-to-kidney (4 h p.i.): 0.83 ± 0.14 | Tumor-to-liver (4 h p.i.): 4.60 ± 1.34 | Blood (8 h p.i.): 23.5 ± 0.74 % IA/g | Bone (8 h p.i.): 2.71 ± 0.21 % IA/g | Heart (8 h p.i.): 8.12 ± 0.46 % IA/g | Intestines (8 h p.i.): 3.70 ± 0.40 % IA/g | Kidneys (8 h p.i.): 28.8 ± 1.49 % IA/g | Liver (8 h p.i.): 4.87 ± 0.42 % IA/g | Lung (8 h p.i.): 12.21 ± 1.32 % IA/g | Muscle (8 h p.i.): 2.01 ± 0.10 % IA/g | PC-3 PIP Tumor (8 h p.i.): 31.0 ± 5.79 % IA/g | PC-3 flu Tumor (8 h p.i.): 5.98 ± 0.91 % IA/g | Salivary glands (8 h p.i.): 5.49 ± 0.59 % IA/g | Spleen (8 h p.i.): 4.10 ± 0.14 % IA/g | Stomach (8 h p.i.): 2.92 ± 0.17 % IA/g | Tumor-to-blood (8 h p.i.): 1.32 ± 0.29 | Tumor-to-kidney (8 h p.i.): 1.07 ± 0.18 | Tumor-to-liver (8 h p.i.): 6.38 ± 1.28 | Blood (24 h p.i.): 17.3 ± 1.38 % IA/g | Bone (24 h p.i.): 2.02 ± 0.31 % IA/g | Heart (24 h p.i.): 6.60 ± 1.01 % IA/g | Intestines (24 h p.i.): 2.19 ± 0.23 % IA/g | Kidneys (24 h p.i.): 24.7 ± 1.85 % IA/g | Liver (24 h p.i.): 3.35 ± 0.26 % IA/g | Lung (24 h p.i.): 9.86 ± 0.57 % IA/g | Muscle (24 h p.i.): 1.61 ± 0.18 % IA/g | PC-3 PIP Tumor (24 h p.i.): 53.8 ± 5.61 % IA/g | PC-3 flu Tumor (24 h p.i.): 5.47 ± 0.67 % IA/g | Salivary glands (24 h p.i.): 4.69 ± 0.33 % IA/g | Spleen (24 h p.i.): 3.75 ± 0.21 % IA/g | Stomach (24 h p.i.): 1.39 ± 0.27 % IA/g | Tumor-to-blood (24 h p.i.): 3.13 ± 0.35 | Tumor-to-kidney (24 h p.i.): 2.17 ± 0.06 | Tumor-to-liver (24 h p.i.): 16.1 ± 1.75 | Blood (48 h p.i.): 12.5 ± 3.78 % IA/g | Bone (48 h p.i.): 1.63 ± 0.56 % IA/g | Heart (48 h p.i.): 4.40 ± 1.18 % IA/g | Intestines (48 h p.i.): 1.73 ± 0.50 % IA/g | Kidneys (48 h p.i.): 22.6 ± 2.69 % IA/g | Liver (48 h p.i.): 2.53 ± 0.77 % IA/g | Lung (48 h p.i.): 7.45 ± 2.06 % IA/g | Muscle (48 h p.i.): 1.32 ± 0.41 % IA/g | PC-3 PIP Tumor (48 h p.i.): 72.3 ± 24.7 % IA/g | PC-3 flu Tumor (48 h p.i.): 5.69 ± 3.65 % IA/g | Salivary glands (48 h p.i.): 3.45 ± 1.09 % IA/g | Spleen (48 h p.i.): 3.79 ± 0.89 % IA/g | Stomach (48 h p.i.): 1.49 ± 0.48 % IA/g | Tumor-to-blood (48 h p.i.): 5.94 ± 1.53 | Tumor-to-kidney (48 h p.i.): 3.17 ± 0.84 | Tumor-to-liver (48 h p.i.): 29.0 ± 5.26 | Blood (96 h p.i.): 7.37 ± 0.64 % IA/g | Bone (96 h p.i.): 1.07 ± 0.27 % IA/g | Heart (96 h p.i.): 3.15 ± 0.28 % IA/g | Intestines (96 h p.i.): 1.21 ± 0.26 % IA/g | Kidneys (96 h p.i.): 16.1 ± 1.69 % IA/g | Liver (96 h p.i.): 1.78 ± 0.03 % IA/g | Lung (96 h p.i.): 5.56 ± 0.54 % IA/g | Muscle (96 h p.i.): 0.91 ± 0.15 % IA/g | PC-3 PIP Tumor (96 h p.i.): 75.7 ± 2.46 % IA/g | PC-3 flu Tumor (96 h p.i.): 3.52 ± 0.54 % IA/g | Salivary glands (96 h p.i.): 2.19 ± 0.1 % IA/g | Spleen (96 h p.i.): 3.23 ± 0.53 % IA/g | Stomach (96 h p.i.): 0.91 ± .010 % IA/g | Tumor-to-blood (96 h p.i.): 10.3 ± 0.57 | Tumor-to-kidney (96 h p.i.): 4.7 ± 0.38 | Tumor-to-liver (96 h p.i.): 42.6 ± 1.90 | Blood (144 h p.i.): 6.02 ± 0.60 % IA/g | Bone (144 h p.i.): 1.14 ± 0.23 % IA/g | Heart (144 h p.i.): 2.55 ± 0.25 % IA/g | Intestines (144 h p.i.): 0.88 ± 0.18 % IA/g | Kidneys (144 h p.i.): 11.2 ± 3.82 % IA/g | Liver (144 h p.i.): 1.50 ± 0.14 % IA/g | Lung (144 h p.i.): 4.99 ± 1.00 % IA/g | Muscle (144 h p.i.): 0.54 ± 0.07 % IA/g | PC-3 PIP Tumor (144 h p.i.): 68.9 ± 8.80 % IA/g | PC-3 flu Tumor (144 h p.i.): 2.77 ± 0.41 % IA/g | Salivary glands (144 h p.i.): 1.67 ± 0.27 % IA/g | Spleen (144 h p.i.): 2.94 ± 0.39 % IA/g | Stomach (144 h p.i.): 0.73 ± 0.10 % IA/g | Tumor-to-blood (144 h p.i.): 11.4 ± 0.47 | Tumor-to-kidney (144 h p.i.): 6.44 ± 1.27 | Tumor-to-liver (144 h p.i.): 46.0 ± 2.53 | Blood (192 h p.i.): 5.29 ± 0.18 % IA/g | Bone (192 h p.i.): 0.83 ± 0.22 % IA/g | Heart (192 h p.i.): 2.08 ± 0.14 % IA/g | Intestines (192 h p.i.): 0.96 ± 0.03 % IA/g | Kidneys (192 h p.i.): 7.35 ± 0.92 % IA/g | Liver (192 h p.i.): 1.25 ± 0.20 % IA/g | Lung (192 h p.i.): 4.17 ± 0.68 % IA/g | Muscle (192 h p.i.): 0.62 ± 0.04 % IA/g | PC-3 PIP Tumor (192 h p.i.): 58.9 ± 12.4 % IA/g | PC-3 flu Tumor (192 h p.i.): 2.42 ± 0.23 % IA/g | Salivary glands (192 h p.i.): 1.55 ± 0.06 % IA/g | Spleen (192 h p.i.): 3.13 ± 0.90 % IA/g | Stomach (192 h p.i.): 0.78 ± 0.07 % IA/g | Tumor-to-blood (192 h p.i.): 11.1 ± 1.97 | Tumor-to-kidney (192 h p.i.): 7.97 ± 0.70 | Tumor-to-liver (192 h p.i.): 47.1 ± 2.44

O=C(O)CCC(NC(=O)NC(CCCCNC(=O)C(Cc1ccc2ccccc2c1)NC(=O)C1CCC(CNC(=O)C(CCCCNC(=O)CN2CCN(CC(=O)O)CCN(CC(=O)O)CCN(CC(=O)O)CC2)NC(=O)CCCCCCC(=O)NC(CCCCNC(=O)CCCc2ccc(I)cc2)C(=O)O)CC1)C(=O)O)C(=O)O (centres unmarked) [^177Lu-PSMA-ALB-04, metal not drawn]
Tumor-to-blood (1 h p.i.): 0.20 ± 0.02 | Tumor-to-kidney (1 h p.i.): 0.54 ± 0.09 | Tumor-to-liver (1 h p.i.): 0.33 ± 0.06 | Blood (24 h p.i.): 55.3 ± 3.10 % IA/g | Bone (24 h p.i.): 8.88 ± 0.19 % IA/g | Heart (24 h p.i.): 22.1 ± 3.70 % IA/g | Intestines (24 h p.i.): 8.13 ± 1.31 % IA/g | Kidneys (24 h p.i.): 41.5 ± 1.44 % IA/g | Liver (24 h p.i.): 17.6 ± 2.04 % IA/g | Lung (24 h p.i.): 40.1 ± 7.77 % IA/g | Muscle (24 h p.i.): 5.82 ± 1.62 % IA/g | PC-3 PIP Tumor (24 h p.i.): 82.8 ± 6.84 % IA/g | PC-3 flu Tumor (24 h p.i.): 14.0 ± 0.60 % IA/g | Salivary glands (24 h p.i.): 12.5 ± 0.42 % IA/g | Spleen (24 h p.i.): 13.6 ± 1.90 % IA/g | Stomach (24 h p.i.): 6.18 ± 0.95 % IA/g | Tumor-to-blood (24 h p.i.): 1.50 ± 0.11 | Tumor-to-kidney (24 h p.i.): 2.00 ± 0.11 | Tumor-to-liver (24 h p.i.): 4.76 ± 0.67 | Blood (48 h p.i.): 38.2 ± 1.48 % IA/g | Bone (48 h p.i.): 6.80 ± 0.67 % IA/g | Heart (48 h p.i.): 13.6 ± 0.36 % IA/g | Intestines (48 h p.i.): 7.27 ± 0.82 % IA/g | Kidneys (48 h p.i.): 38.2 ± 4.10 % IA/g | Liver (48 h p.i.): 13.1 ± 0.67 % IA/g | Lung (48 h p.i.): 24.6 ± 2.02 % IA/g | Muscle (48 h p.i.): 4.62 ± 0.38 % IA/g | PC-3 PIP Tumor (48 h p.i.): 93.2 ± 12.4 % IA/g | PC-3 flu Tumor (48 h p.i.): 12.6 ± 0.82 % IA/g | Salivary glands (48 h p.i.): 10.6 ± 0.42 % IA/g | Spleen (48 h p.i.): 14.0 ± 1.70 % IA/g | Stomach (48 h p.i.): 5.04 ± 0.35 % IA/g | Tumor-to-blood (48 h p.i.): 2.45 ± 0.41 | Tumor-to-kidney (48 h p.i.): 2.47 ± 0.50 | Tumor-to-liver (48 h p.i.): 7.16 ± 1.16 | Blood (96 h p.i.): 11.65 ± 1.22 % IA/g | Bone (96 h p.i.): 2.54 ± 0.31 % IA/g | Heart (96 h p.i.): 4.81 ± 0.29 % IA/g | Intestines (96 h p.i.): 2.36 ± 0.17 % IA/g | Kidneys (96 h p.i.): 15.3 ± 1.49 % IA/g | Liver (96 h p.i.): 4.67 ± 0.82 % IA/g | Lung (96 h p.i.): 9.96 ± 1.44 % IA/g | Muscle (96 h p.i.): 1.56 ± 0.56 % IA/g | PC-3 PIP Tumor (96 h p.i.): 61.4 ± 7.68 % IA/g | PC-3 flu Tumor (96 h p.i.): 5.63 ± 0.37 % IA/g | Salivary glands (96 h p.i.): 4.08 ± 0.44 % IA/g | Spleen (96 h p.i.): 6.76 ± 0.59 % IA/g | Stomach (96 h p.i.): 1.74 ± 0.11 % IA/g | Tumor-to-blood (96 h p.i.): 5.29 ± 0.74 | Tumor-to-kidney (96 h p.i.): 4.03 ± 0.56 | Tumor-to-liver (96 h p.i.): 13.4 ± 2.88 | Blood (192 h p.i.): 3.75 ± 1.49 % IA/g | Bone (192 h p.i.): 1.17 ± 0.61 % IA/g | Heart (192 h p.i.): 1.73 ± 0.70 % IA/g | Intestines (192 h p.i.): 0.67 ± 0.15 % IA/g | Kidneys (192 h p.i.): 8.82 ± 3.83 % IA/g | Liver (192 h p.i.): 2.45 ± 0.81 % IA/g | Lung (192 h p.i.): 4.10 ± 1.77 % IA/g | Muscle (192 h p.i.): 0.71 ± 0.54 % IA/g | PC-3 PIP Tumor (192 h p.i.): 57.6 ± 17.3 % IA/g | PC-3 flu Tumor (192 h p.i.): 3.31 ± 1.43 % IA/g | Salivary glands (192 h p.i.): 1.96 ± 0.73 % IA/g | Spleen (192 h p.i.): 5.22 ± 3.17 % IA/g | Stomach (192 h p.i.): 0.56 ± 0.19 % IA/g | Tumor-to-blood (192 h p.i.): 15.8 ± 3.55 | Tumor-to-kidney (192 h p.i.): 6.91 ± 2.24 | Tumor-to-liver (192 h p.i.): 23.9 ± 5.12
